Literature values, collected in patent publication US20230201309A1, “COMPOSITIONS FOR THE TREATMENT OF A RESPIRATORY CONDITION” (VECTURA LIMITED, priority 2020, published 2023).

Test system: COVID-19

## CCN(CCO)CCCC(C)Nc1ccnc2cc(Cl)ccc12 (centres unmarked) [hydroxychloroquine sulphate]
Hospitalised COVID-19 patients, hydroxychloroquine sulphate monotherapy plus supportive care, total dose 2400 mg, 804/4,542 patients
  Hospital mortality: 17.7%
Multivariate analysis, 95% CI 0.617-0.758
  mortality, adjusted hazard ratio (aHR) vs no-hydroxychloroquine sulphate group: 0.684
